From patent US20220324835A1 (Nurix Therapeutics, Inc., priority 2018, published 2022) come the findings set out here.

pIC50, pKd: −log10 of the molar value.

Test [1] addresses T1, Cbl-b (Homo sapiens, UniProt Q13191). As to the kind of experiment: Cbl-b activity assay (Cbl-b inhibition assay), TR-FRET of Cbl-b interaction with UbcH5B-Ub. Conditions: assay buffer with 100 mM NaCl, 60 nM Src kinase; read-out: Cbl-b activity IC50. The test is classed as biochemical. The gist of the method:
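TR-FRET readout of Cbl-b binding to Bodipy-fluorescein N-terminally labeled Ub conjugated to UbcH5B C85K, measured with compound present. After compound incubation, 60 nM Src kinase with 1 mM ATP and 5 mM MgCl2 (final) was added for 1.5 h, then a further 1 h incubation; asterisked values used 50 mM NaCl buffer and 30 nM Src.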

The test system of test [2] is T-cell. As to the kind of experiment: CD25 cell surface staining on T-cells stimulated with anti-CD3 antibody alone (Biological Example 2). The test is classed as cell-based. Particulars: primary human total T-cells, baseline = anti-CD3/anti-CD28 stimulated cells without inhibitor, read-out: CD25 staining, Anti-CD3 stimulation, fold change over baseline; for fold induction at 1 µM: 1 μM compound; for fold induction at 8 µM: 8 μM compound.

The target in test [3] is T1, Cbl-b. The experiment in a line: Cbl-b inhibition assay (Cbl-b activity assay, FRET, Biological Example 1; 100 mM NaCl, 60 nM Src kinase). In kind it is biochemical. Conditions: upper bound stated in text lists; read-out: IC50 values in the Cbl-b inhibition assay of Biological Example 1. The gist of the method:
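Inhibition is read as loss of FRET signal. The signal arises when Src-phosphorylated, N-terminal biotinylated Avi-Cbl-b (captured by streptavidin-terbium) binds UbcH5B carrying covalently linked Bodipy-Fluorescein-tagged ubiquitin.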

Test [4] deals with T-cell. As to the kind of experiment: CD25 cell surface staining on T-cells co-stimulated with anti-CD3 and anti-CD28 antibody (Biological Example 2). Particulars: Homo sapiens, T-cell, primary human total T-cells, baseline = anti-CD3/anti-CD28 stimulated cells without inhibitor, read-out: CD25 staining, Anti-CD3/Anti-CD28 stimulation, fold change over baseline; for fold induction at 0.3 µM: 0.3 μM compound; for fold induction at 1 µM: 1 μM compound; for fold induction at 4 µM: 4 μM compound. In kind it is cell-based, human. The gist of the method:
(§1)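 No assay protocol given; T-cells stimulated with anti-CD3 alone or anti-CD3 plus anti-CD28, with or without Cbl-b inhibitor. Activation read as IL-2 secretion or CD25 surface staining, expressed as fold over baseline from uninhibited cells […].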

Test [5] concerns T-cell. As to the kind of experiment: IL-2 secretion from T-cells stimulated with anti-CD3 antibody alone (Biological Example 2). Particulars: primary human total T-cells, read-out: IL-2 secretion, Anti-CD3 stimulation, fold change over baseline; for fold induction at 1 µM: 1 μM compound; for fold induction at 8 µM: 8 μM compound. The test is classed as cell-based.
For the next test, the target named is Cbl-b (residues 36-427) (Homo sapiens, UniProt Q13191). As to the kind of experiment: Cbl-b binding assay (SPR, Biacore T200). Conditions: 20° C., 1:1 binding model. The gist of the method: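 Affinities derived from global 1:1 steady-state or kinetic fits of double-referenced, solvent-corrected SPR data, 20 °C, NeutrAvidin-capture chip. Compound series (top 100 or 50 μM, 8–10 points) injected 50 s, 90–180 s dissociation. Asterisked values used 50 mM instead of 100 mM NaCl and 30 nM Src kinase.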
In general terms: Surface plasmon resonance follows binding to a sensor surface in real time, without labels.

Test [6] concerns T-cell. As to the kind of experiment: IL-2 secretion from T-cells co-stimulated with anti-CD3 and anti-CD28 antibody (Biological Example 2). The test is classed as cell-based, human. Particulars: Homo sapiens, T-cell, primary human total T-cells, baseline = anti-CD3/anti-CD28 stimulated cells without inhibitor, read-out: IL-2 secretion, Anti-CD3/Anti-CD28 stimulation, fold change over baseline; for fold induction at 0.3 µM: 0.3 μM compound; for fold induction at 1 µM: 1 μM compound; for fold induction at 4 µM: 4 μM compound. The gist of the method:
as §1

The next test relates to T-cells. As to the kind of experiment: In vivo activity: CD25 expression on CD4+ or CD8+ T-cells of mice stimulated with anti-CD3 antibody. Particulars: 135 mpk PO BID, 2 μg anti-CD3 antibody, 24 hours. As to the method:
A method of determining the pharmacodynamic profile of Cbl-b inhibitors was performed by dosing strains of mice with competent immune systems such as C57BL/6 or BALB/c with a Cbl-b inhibitor. The Cbl-b inhibitor was dissolved in a suitable formulation and administered by one of various routes such as intravenous (IV), intraperitoneal (IP), subcutaneous (SC), or oral (PO), at a suitable dose level and frequency (e.g. twice per day BID or thrice per day TID) as informed by prior pharmacokinetic and tolerability studies. Following administration of the Cbl-b inhibitor, T-cells and indirectly other immune cells (e.g. via cytokine production) were stimulated in vivo by administration of an anti-CD3 antibody or antigen-binding fragment thereof in PBS at defined amounts such as 2 μg or 10 μg per animal by routes such as IV or IP (See Hirsh et al., J. Immunol., 1989; Ferran, et al., Eur. J. Immunol., 1990). Additional study control arms included groups of mice treated with a vehicle formulation alone (i.e., formulation without the Cbl-b inhibitor and anti-CD3 antibody), a formulation containing the Cbl-b inhibitor alone, a formulation containing the anti-CD3 antibody alone, PBS alone, or combinations of these agents. The level of immune activation was then assessed by analysis of plasma cytokine levels and/or expression of activation markers on immune cells (e.g. T-cells). Blood or lymphoid organs (e.g. spleen) were collected at defined time points (e.g. 8 hours or 24 hours). Blood samples were processed to collect plasma for determination of cytokine levels using standard methods known in the art. Cytokines measured included IL-2, IFNγ, and TNFα. Additional blood samples and lymphoid tissues were processed for flow cytometric analysis of immune cells (e.g. T-cells) using standard methods to determine expression of cell type-specific markers and activation markers such as CD25 and/or CD69. Augmentation of immune stimulation by Cbl-b inhibitor administration was assessed by comparing the relative concentrations of cytokines in plasma, or the expression levels of activation markers on immune cells between appropriate groups (e.g. mice treated with Cbl-b inhibitor and 2 μg anti-CD3 antibody versus mice treated with vehicle and 2 μg anti-CD3 antibody).
Cbl-b inhibitors were tested to determine their ability to induce or enhance the level of cytokines (e.g. IL-2, IFNγ, and TNFα) in blood obtained from treated mice stimulated with an anti-CD3 antibody, which is indicative of modulation of the immune response. Cbl-b inhibitors were also tested to determine their ability to induce or enhance the expression of cell surface markers on T-cells (e.g. CD25 and/or CD69) isolated from treated mice stimulated with an anti-CD3 antibody, which is indicative of modulation of the immune response.
Readouts were reported as fold change over baseline. The fold change was calculated from the mean value of mice treated with Cbl-b inhibitor and 2 μg anti-CD3 antibody, with the baseline defined as the mean value of mice treated with vehicle and 2 μg anti-CD3 antibody. Increases in the percentage of cells with surface expression of CD25 on CD4+ T-cells or CD8+ T-cells greater than 1.5-fold over baseline at 24 hours were considered a positive response. Increases in the plasma concentration of IL-2, IFNγ, and TNFα greater than 1.5-fold over baseline at 8 hours post-stimulation were also considered a positive response (Table 8). Fold changes were ranked into bins according to their readouts as follows: A indicates >2.50, B indicates 2.01-2.50, C indicates 1.51-2.00, D indicates 1.00-1.50, and E indicates <1.00.

Cbl-b (residues 36-427), sequence (Q13191 36-427): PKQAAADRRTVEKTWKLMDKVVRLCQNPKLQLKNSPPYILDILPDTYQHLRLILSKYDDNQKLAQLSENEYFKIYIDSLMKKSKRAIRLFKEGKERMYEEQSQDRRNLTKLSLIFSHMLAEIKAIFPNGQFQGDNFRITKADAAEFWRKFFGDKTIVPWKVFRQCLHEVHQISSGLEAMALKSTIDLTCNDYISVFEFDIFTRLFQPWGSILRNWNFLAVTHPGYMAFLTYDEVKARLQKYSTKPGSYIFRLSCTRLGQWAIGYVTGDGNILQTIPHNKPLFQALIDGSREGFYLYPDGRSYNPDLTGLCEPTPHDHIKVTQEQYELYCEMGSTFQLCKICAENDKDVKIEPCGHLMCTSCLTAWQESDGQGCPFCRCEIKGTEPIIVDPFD
T1 sequence (Q13191 36-427): as above

`Cn1cnnc1CC(C)(C)c1cccc(NC(=O)c2cc(C(=O)N3CC[C@H](O)C3)cc(C(F)(F)F)n2)c1` [Compound 475, (S)-4-(3-hydroxypyrrolidine-1-carbonyl)-N-(3-(2-methyl-1-(4-methyl-4H-1,2,4-triazol-3-yl)propan-2-yl)phenyl)-6-(trifluoromethyl)picolinamide]: the pIC50 on Cbl-b [1] was greater than 7.00; on Cbl-b [3] it was no less than 7.00. Moreover, the fold induction at 1 µM in the test on T-cell [2] lay within 0.801 to 1; in the test with T-cell [4], 1.01 to 1.3; with T-cell [5], 0.101 to 0.15; with T-cell [6] it was 2.51 to 5. The fold induction at 8 µM in the test with T-cell [2] was greater than 1; with T-cell [5] it was greater than 0.201. Further, the fold induction at 0.3 µM in the test with T-cell [4] was 1.01 to 1.3; with T-cell [6], 1.01 to 2.5. Also, the results for the fold induction at 4 µM in the test with T-cell [4] and in the test with T-cell [6] were 1.01 to 1.3 and 5 to 7.5, respectively. In addition, the pKd on Cbl-b (residues 36-427) is 6.52 to 7.00.

For `Cn1cnnc1CC(C)(C)c1cccc(N2Cc3c(cc(C4CC4)cc3C(F)(F)F)C2=O)c1` [Compound 477, 6-cyclopropyl-2-(3-(2-methyl-1-(4-methyl-4H-1,2,4-triazol-3-yl)propan-2-yl)phenyl)-4-(trifluoromethyl)isoindolin-1-one], the values for the pIC50 at Cbl-b [1] and at Cbl-b [3] were greater than 7.00 and no less than 7.00, respectively. For the same molecule, the fold induction at 1 µM with T-cell [2] is 0.801 to 1; in the test with T-cell [4], 1.01 to 1.3; in the test on T-cell [5], 0.101 to 0.15; with T-cell [6], 2.51 to 5. In addition, the fold induction at 8 µM was greater than 1 in the test on T-cell [2] and greater than 0.201 in the test on T-cell [5]. Further, the fold induction at 0.3 µM in the test on T-cell [4] was 1.01 to 1.3; with T-cell [6], 1.01 to 2.5. The values for the fold induction at 4 µM with T-cell [4] and with T-cell [6] were 1.31 to 1.5 and 5 to 7.5, respectively. The molecule also had a pKd on Cbl-b (residues 36-427) greater than 7.00.

On to `Cn1cnnc1CC1(c2cccc(N3Cc4c(cc(CN5CCC(F)CC5)cc4C(F)(F)F)C3=O)c2)COC1` [Compound 489, 6-[(4-fluoropiperidin-1-yl)methyl]-2-(3-{3-[(4-methyl-1,2,4-triazol-3-yl)methyl]oxetan-3-yl}phenyl)-4-(trifluoromethyl)-3H-isoindol-1-one], for which the pIC50 at Cbl-b [1] is greater than 7.00. Moreover, in the test with T-cells, the “CD4+ T-cell % CD25+” value is given as “C (C indicates 1.51-2.00)” and the “CD8+ T-cell % CD25+” value is given as “D (D indicates 1.00-1.50)”. The pIC50 on Cbl-b [3] is no less than 7.00.

In the case of `Cn1cnnc1CC1(c2cccc(NC(=O)c3cc(Cn4ccnn4)nc(C4CC4)n3)c2)COC1` [Compound 506, 2-cyclopropyl-N-(3-{3-[(4-methyl-1,2,4-triazol-3-yl)methyl]oxetan-3-yl}phenyl)-6-(1,2,3-triazol-1-ylmethyl)pyrimidine-4-carboxamide], the pIC50 on Cbl-b [1] is greater than 7.00; at Cbl-b [3] it was no less than 7.00. In addition, the fold induction at 1 µM lay within 0.801 to 1 in the test on T-cell [2], 1.31 to 1.5 in the test with T-cell [4], 0.101 to 0.15 in the test on T-cell [5] and 2.51 to 5 in the test on T-cell [6]. For the same molecule, the fold induction at 0.3 µM in the test with T-cell [4] lay within 1.01 to 1.3; in the test with T-cell [6], 1.01 to 2.5. This molecule gave a pKd at Cbl-b (residues 36-427) greater than 7.00.

On to `Cn1cnnc1CC1(c2cccc(N3Cc4c(cc(CN5CC[C@H](F)C5)cc4C4CC4)C3=O)c2)COC1` [Example 554, (S)-4-cyclopropyl-6-((3-fluoropyrrolidin-1-yl)methyl)-2-(3-(3-((4-methyl-4H-1,2,4-triazol-3-yl)methyl)oxetan-3-yl)phenyl)isoindolin-1-one], for which the values for the pIC50 on Cbl-b [1] and at Cbl-b [3] were greater than 7.00 and no less than 7.00, respectively. Further, the fold induction at 1 µM with T-cell [2] is greater than 1; with T-cell [4], 1.31 to 1.5; with T-cell [5], 0.151 to 0.2; in the test on T-cell [6], greater than 7.5. Further, the fold induction at 0.3 µM in the test on T-cell [4] was 1.31 to 1.5; in the test with T-cell [6], greater than 7.5. The same molecule gave a pKd on Cbl-b (residues 36-427) greater than 7.00.

`C[C@@H](c1cc2c(c(C(F)(F)F)c1)CN(c1cccc(C3(Cc4nncn4C)COC3)c1)C2=O)N1CCC(F)CC1` [Example 622a, (S)-6-(1-(4-fluoropiperidin-1-yl)ethyl)-2-(3-(3-((4-methyl-4H-1,2,4-triazol-3-yl)methyl)oxetan-3-yl)phenyl)-4-(trifluoromethyl)isoindolin-1-one]: in the test on T-cells, the “CD4+ T-cell % CD25+” value is “B (B indicates 2.01-2.50)” and the “CD8+ T-cell % CD25+” value is “D (D indicates 1.00-1.50)”.

With `C[C@H](c1cc2c(c(C(F)(F)F)c1)CN(c1cccc(C3(Cc4nncn4C)COC3)c1)C2=O)N1CCC(F)CC1` [Example 622b, (R)-6-(1-(4-fluoropiperidin-1-yl)ethyl)-2-(3-(3-((4-methyl-4H-1,2,4-triazol-3-yl)methyl)oxetan-3-yl)phenyl)-4-(trifluoromethyl)isoindolin-1-one], in the test on T-cells, the “CD4+ T-cell % CD25+” value was “B (B indicates 2.01-2.50)” and the “CD8+ T-cell % CD25+” value was “D (D indicates 1.00-1.50)”.

Broadly, the pIC50 is −log10 of the IC50, conventionally taken in molar units. For orientation: pKd means the Kd on a negative log10 scale, so that one unit is a factor of ten. Lower therefore signals a large Kd.
